Series [1] has as its system Mus musculus. In words: Concentration causing local anesthetic activity in mice. The class given is functional, organism-based.
The target in series [2] is T1, Voltage-dependent L-type calcium channel subunit alpha-1C (Oryctolagus cuniculus, UniProt P15381). Put plainly: Inhibition of [3H]nitrendipine binding to calcium channels in Rabbit cardiac muscle. The format is tissue-based, Muscle tissue.
Series [3] relates to Mus musculus. Put plainly: Concentration causing local anesthetic activity in mice; inactive. The format is functional, organism-based.
The species named for series [4] is Canis familiaris. Put plainly: Percent inhibition of calcium-dependent potassium-polarized smooth muscle contraction in canine trachea. The format is functional, Canis lupus familiaris, Muscle tissue.
Series [5] has as its target T1, Voltage-dependent L-type calcium channel subunit alpha-1C. Put plainly: Inhibition of [3H]nitrendipine binding to calcium channels of rabbit cardiac muscle at 10 uM. The format is functional, tissue-based, Muscle tissue. As to conditions: probe [3H]nitrendipine.
Series [6] in a line: Inhibition of [3H]nitrendipine binding to calcium channels of rabbit cardiac muscle at 68 uM. As to conditions: Oryctolagus cuniculus, Muscle tissue. The class given is functional.

The structures appear in SMILES notation. Calls of active or inactive are those of the source. No cut-off for these calls is given here.

T1 sequence (P15381 whole entry): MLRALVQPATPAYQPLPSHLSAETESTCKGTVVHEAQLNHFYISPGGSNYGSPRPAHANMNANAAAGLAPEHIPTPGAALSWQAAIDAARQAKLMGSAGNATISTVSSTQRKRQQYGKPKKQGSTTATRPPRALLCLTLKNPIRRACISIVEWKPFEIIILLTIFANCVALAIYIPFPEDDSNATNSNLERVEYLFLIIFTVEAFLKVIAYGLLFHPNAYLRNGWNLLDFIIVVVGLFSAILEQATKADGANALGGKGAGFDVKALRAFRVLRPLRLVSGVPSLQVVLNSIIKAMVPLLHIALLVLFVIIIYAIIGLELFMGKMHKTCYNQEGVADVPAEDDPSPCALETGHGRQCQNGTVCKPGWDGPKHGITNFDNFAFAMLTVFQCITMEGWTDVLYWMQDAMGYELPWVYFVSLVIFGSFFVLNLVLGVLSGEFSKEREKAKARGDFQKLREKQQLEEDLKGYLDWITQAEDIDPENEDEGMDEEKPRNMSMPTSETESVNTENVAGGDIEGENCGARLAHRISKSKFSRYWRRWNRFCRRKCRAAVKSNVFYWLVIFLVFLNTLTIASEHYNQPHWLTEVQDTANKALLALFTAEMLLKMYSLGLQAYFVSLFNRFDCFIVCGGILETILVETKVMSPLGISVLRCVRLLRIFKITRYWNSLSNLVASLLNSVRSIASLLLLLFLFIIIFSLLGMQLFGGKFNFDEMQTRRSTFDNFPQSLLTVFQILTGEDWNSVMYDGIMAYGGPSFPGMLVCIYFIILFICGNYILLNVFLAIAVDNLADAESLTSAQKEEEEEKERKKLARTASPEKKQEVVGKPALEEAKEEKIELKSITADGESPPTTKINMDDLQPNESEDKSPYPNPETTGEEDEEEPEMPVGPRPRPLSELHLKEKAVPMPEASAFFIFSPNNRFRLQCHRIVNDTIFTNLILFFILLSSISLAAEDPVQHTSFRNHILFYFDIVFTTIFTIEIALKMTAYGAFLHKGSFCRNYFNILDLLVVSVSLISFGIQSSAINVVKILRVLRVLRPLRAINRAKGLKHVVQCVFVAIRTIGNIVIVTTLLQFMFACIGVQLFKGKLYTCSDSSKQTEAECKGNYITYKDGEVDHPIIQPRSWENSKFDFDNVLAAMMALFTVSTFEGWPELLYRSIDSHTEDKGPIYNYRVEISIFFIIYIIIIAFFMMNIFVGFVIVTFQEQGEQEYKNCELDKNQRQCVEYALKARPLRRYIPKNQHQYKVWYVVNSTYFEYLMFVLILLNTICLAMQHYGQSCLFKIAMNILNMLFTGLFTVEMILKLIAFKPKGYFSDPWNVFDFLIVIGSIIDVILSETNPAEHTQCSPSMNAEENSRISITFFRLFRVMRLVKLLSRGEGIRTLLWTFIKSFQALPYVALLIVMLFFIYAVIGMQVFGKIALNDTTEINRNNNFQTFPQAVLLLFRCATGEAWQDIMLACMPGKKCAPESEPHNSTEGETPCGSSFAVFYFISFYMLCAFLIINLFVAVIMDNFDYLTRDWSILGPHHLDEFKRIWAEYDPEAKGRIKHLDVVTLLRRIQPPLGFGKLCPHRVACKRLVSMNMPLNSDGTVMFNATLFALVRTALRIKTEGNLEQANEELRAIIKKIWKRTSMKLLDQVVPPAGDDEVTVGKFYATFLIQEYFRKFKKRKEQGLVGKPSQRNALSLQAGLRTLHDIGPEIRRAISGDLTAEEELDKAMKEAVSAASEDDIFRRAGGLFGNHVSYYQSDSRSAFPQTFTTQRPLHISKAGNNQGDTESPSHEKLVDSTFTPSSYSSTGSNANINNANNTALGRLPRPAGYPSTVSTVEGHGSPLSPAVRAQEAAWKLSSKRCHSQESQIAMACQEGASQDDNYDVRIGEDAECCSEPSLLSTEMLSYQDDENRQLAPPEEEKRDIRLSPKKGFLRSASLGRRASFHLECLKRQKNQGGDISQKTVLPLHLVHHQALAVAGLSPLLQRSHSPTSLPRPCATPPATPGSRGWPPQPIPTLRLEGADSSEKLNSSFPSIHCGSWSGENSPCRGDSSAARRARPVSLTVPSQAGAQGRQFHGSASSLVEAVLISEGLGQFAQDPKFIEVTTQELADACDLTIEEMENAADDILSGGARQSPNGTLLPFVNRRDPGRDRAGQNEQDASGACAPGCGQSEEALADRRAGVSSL

`CCCCN(CCCC)CCCOc1ccc(-c2cn3ccsc3n2)cc1` had a Concentration in series [1] above 1%.

Consider `CCCCN(CCCC)CCCOc1ccc(-c2cn3cc(C)ccc3n2)cc1`, for which, in series [1], the Concentration is 0.1%.

By IC50 is commonly meant the concentration that gives 50% inhibition. With `CCCCN(CCCC)CCCOc1ccc(C(=O)c2cnc3nc(C)ccn23)cc1`, in series [2], the half-maximal inhibitory concentration (IC50) amounted to 6.1 µM. In addition, the Concentration entry in series [3] is “inactive”. For orientation: Inhibition means the relative decrease from the control value, in per cent. Turning to `COc1ccc(CCN(C)CCCC(C#N)(c2ccc(OC)c(OC)c2)C(C)C)cc1OC` (stereo not drawn), the Inhibition in series [4] turned out to be 93%. This compound yielded a Concentration in series [1] of 1%. In series [1], `Cc1cccn2cc(-c3ccc(OCCCN4CCOCC4)cc3)nc12` returned a Concentration above 1%. The same measure, in the same setting: with `Cc1cccn2cc(-c3ccc(OCCCn4ccnc4)cc3)nc12` the figure was above 1%. As for `COC(=O)C1=C(C)NC(C)=C(C(=O)OC)C1c1ccccc1[N+](=O)[O-]` [NIFEDIPINE], in series [4], the Inhibition amounted to 95%. For the same compound, in series [1], the Concentration was above 1%. In turn, `CCCCN(CCCC)CCCOc1ccc(-c2cn3cccc(C)c3n2)cc1C` gave a Concentration in series [1] of 0.1%. On the same count and under the same terms, with `CCCCN(CCCC)CCCOc1ccc(-c2cn3cc(Br)ccc3n2)cc1` the figure was 1%. On the same count and under the same terms, with `CCCCN(CCCC)CCCOc1ccc(C(=O)c2cn3ccc(C)cc3n2)cc1` the figure was 1%; with `CCCCN(CCCC)CCCOc1c(OC)cc(-c2cn3cccc(C)c3n2)cc1OC`, 0.1%. The same measure, in the same setting: with `CCCN(CCC)CCCOc1ccc(-c2cn3cccc(C)c3n2)cc1` the figure was 0.1%; with `Cc1cccn2cc(-c3ccc(OCCCN(C)C)cc3)nc12`, 1%. On to `CCCCN(CCCC)CCCOc1ccc(-c2cn3cccc(C)c3n2)cc1OC`, for which the Concentration in series [1] turned out to be 0.01%. Take `CCCCN(CCCC)CCCOc1ccc(-c2cn3c(n2)sc2ccccc23)cc1.Cl.Cl`: the Inhibition in series [4] is 15%. Further, in series [1], the Concentration was 1%. Take `CCCCN(CCCC)CCCOc1ccc(-c2cn3ccc(C)nc3n2)cc1`: the Concentration result in series [3] was “inactive”. In the case of `CC(C)COCC(CN(Cc1ccccc1)c1ccccc1)N1CCCC1` (stereo not drawn) [BEPRIDIL], the IC50 in series [2] was 22 µM. Besides, in series [4], the Inhibition was 81%.

With `CCCCN(CCCC)CCCOc1ccc(C(=O)c2cnc3ncccn23)cc1.Cl.Cl`, the Inhibition in series [4] is on record as 44%. Also, the Concentration result in series [3] is “inactive”. For the compound `CCCCN(CCCC)CCCOc1ccc(C(=O)c2cnc3c(C)cccn23)cc1`, the IC50 in series [2] worked out at 0.5 µM. Besides, in series [1], the Concentration came to 0.1%.

Broadly, the inhibition is the share of the control response that was lost under treatment. As to `CCCCN(CCCC)CCCOc1ccc(-c2cn3cccc(OCc4ccccc4)c3n2)cc1`, the Concentration in series [1] stood at 0.1%. Also, the inhibition at 10 µM in series [5] stood at 45%.

As to `CCN(CC)CC(=O)Nc1c(C)cccc1C`, the Concentration in series [1] worked out at 1%. Still for that read-out and setting: then `CCCCN(CCCC)CCCOc1ccc(-c2cn3cccc(C)c3n2)cc1`, with 0.01%. As to `CCCCN(CCCC)CCCOc1ccc(-c2cn3nc(C)sc3n2)cc1`, in series [3], the Concentration entry is “inactive”. The compound `CCCCN(CCCC)CCCOc1ccc(-c2cn3cccnc3n2)cc1` gave a Concentration in series [1] above 1%. Besides, the inhibition at 68 µM in series [6] turned out to be 43%. Turning to `CCCCN(CCCC)CCCOc1ccc(-c2nc3sccn3c2C)cc1`, the Concentration in series [1] was 0.1%. Turning to `CCCCN(CCCC)CCCOc1ccc(-c2cn3ccc(C)cc3n2)cc1`, the Concentration in series [1] came to 0.1%. On to `CCCCN(CCCC)CCCOc1ccc(-c2cn3cccc(C)c3n2)c(C)c1`, for which the Concentration in series [1] came out at 0.1%. In the case of `CCCCN(CCCC)CCCOc1ccc(-c2cn3c(C)cccc3n2)cc1`, the Concentration in series [1] was found to be 0.1%. The compound `CCCCN(CCCC)CCCOc1ccc(C(=O)c2cnc3ccc(Br)cn23)cc1` came in with a Concentration in series [1] of 0.1%.

In series [1], `CCCCCN(CCCCC)CCCOc1ccc(-c2cn3cccc(C)c3n2)cc1` registered a Concentration of 0.1%. Regarding `CCCCN(CCCC)CCCOc1ccc(C(=O)c2cn3cccc(C)c3n2)cc1`, the IC50 in series [2] worked out at 6 µM. Further, in series [1], the Concentration came to 1%. `CCCCN(CCCC)CCCCOc1ccc(-c2cn3cccc(C)c3n2)cc1` came in with a Concentration in series [1] of 1%.

For `COc1ccc([C@@H]2Sc3ccccc3N(CCN(C)C)C(=O)[C@@H]2OC(C)=O)cc1` [DILTIAZEM], the Inhibition in series [4] turned out to be 96%. Turning to `CCCCN(CCCC)CCCOc1ccc(-c2nc3c(C)cccn3c2C)cc1`, in series [1], the Concentration came to 0.1%. Compound `Cc1cccn2cc(-c3ccc(OCCCN4CCCCC4)cc3)nc12` displayed a Concentration in series [1] of 1%. For the compound `CCCCN(CCCC)CCCOc1ccc(C(=O)c2cn3cc(Br)ccc3n2)cc1.Cl.Cl`, the Inhibition in series [4] is listed as 50%. Further, the Concentration in series [1] was determined as 1%. In turn, `CCCCN(CCCC)CCCOc1ccc(-c2cn3cccc([N+](=O)[O-])c3n2)cc1` yielded a Concentration in series [1] above 1%. Turning to `CCCCN(CCCC)CCCOc1ccc(-c2cn3ccccc3n2)cc1.Cl`, the Inhibition in series [4] was found to be 5.4%. In series [1], this compound registered a Concentration of 0.1%.

Turning to `CCCCN(CCCC)CCCOc1ccc(-c2cn3cccc(O)c3n2)cc1`, in series [1], the Concentration came out at 0.1%. With `CCCCN(CCCC)CCCOc1ccc(-c2cn3nccnc3n2)cc1.Cl.Cl`, the Inhibition in series [4] worked out at 46%. Further, the Concentration result in series [3] was “inactive”.

These data come from ChEMBL document CHEMBL1124014, “Synthesis of (aryloxy)alkylamines. 2. Novel imidazo-fused heterocycles with calcium channel blocking and local anesthetic activity” (J Med Chem, 1988).
